PubChem BioAssay (NCI)
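Results reflect a 48-hour exposure of cells in 96-well plates to compound at five concentrations. TGI denotes the concentration required for complete inhibition of growth.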

Columns and labels:
Test in all cases: inhibition of tumour cell growth, NCI panel, 48 h
MCF7 breast = test system: MCF7 breast
NCI-H226 lung = test system: NCI-H226 lung
SF-268 CNS = test system: SF-268 CNS
DU-145 prostate = test system: DU-145 prostate
ACHN renal = test system: ACHN renal
SW-620 colon = test system: SW-620 colon
EKVX NSCLC = test system: EKVX NSCLC
SK-MEL-2 melanoma = test system: SK-MEL-2 melanoma
SF-539 CNS = test system: SF-539 CNS
MDA-N = test system: MDA-N
HT29 colon = test system: HT29 colon
UACC-62 melanoma = test system: UACC-62 melanoma
CAKI-1 renal = test system: CAKI-1 renal
SK-OV-3 ovarian = test system: SK-OV-3 ovarian
HCT-116 colon = test system: HCT-116 colon
K-562 leukemia = test system: K-562 leukemia
BT-549 breast = test system: BT-549 breast

Row | Compound | TGI (MCF7 breast) [µM] | TGI (NCI-H226 lung) [µM] | TGI (SF-268 CNS) [µM] | TGI (DU-145 prostate) [µM] | TGI (ACHN renal) [µM] | TGI (SW-620 colon) [µM] | TGI (EKVX NSCLC) [µM] | TGI (SK-MEL-2 melanoma) [µM] | TGI (SF-539 CNS) [µM] | TGI (MDA-N) [µM] | TGI (HT29 colon) [µM] | TGI (UACC-62 melanoma) [µM] | TGI (CAKI-1 renal) [µM] | TGI (SK-OV-3 ovarian) [µM] | TGI (HCT-116 colon) [µM] | TGI (K-562 leukemia) [µM] | TGI (BT-549 breast) [µM]
1 | C=C(Br)CN(C(C)=O)C1CCCCC1 | > 100 | > 100 | > 100 | > 100 | > 100 | > 100 | > 100 | > 100 | > 100 | > 100 | > 100 | > 100 | > 100 | > 100 | > 100 | > 100 | –
2 | CC/C=C/C(=O)CC(O)(C(F)(F)F)C(F)(F)F | > 100 | > 100 | > 100 | > 100 | > 100 | > 100 | > 100 | – | > 100 | – | > 100 | > 100 | – | > 100 | > 100 | – | –
3 | O=C1c2c(ccc3c2CCC3)CC12Cc1cc3c(cc1C2)CCC3 | > 100 | > 100 | > 100 | > 100 | > 100 | > 100 | > 100 | > 100 | > 100 | > 100 | > 100 | – | > 100 | > 100 | > 100 | > 100 | –
4 | CCCn1c(SCC)c2cc3cc4ccccc4cc3cc2c1-c1nc(F)nc(F)n1 | – | > 100 | > 100 | – | > 100 | > 100 | > 100 | > 100 | > 100 | – | > 100 | – | > 100 | > 100 | > 100 | > 100 | –
5 | O=C1CCC2CCC1C2 (stereo not drawn) | > 100 | > 100 | > 100 | > 100 | > 100 | – | – | > 100 | > 100 | > 100 | > 100 | > 100 | > 100 | > 100 | > 100 | > 100 | –
6 | COC(=O)C1=Cc2cc(OC)c(O)cc2[C@@H](c2ccc(O)c(OC)c2)[C@@H]1C(=O)OC | > 100 | > 100 | > 100 | > 100 | > 100 | > 100 | > 100 | – | > 100 | > 100 | > 100 | – | – | – | > 100 | > 100 | –
7 | O=C(c1ccco1)N(C(=S)N1CCN(c2ccccn2)CC1)C1CCCCC1 | – | > 100 | > 100 | – | > 100 | > 100 | – | > 100 | > 100 | – | > 100 | > 100 | > 100 | > 100 | > 100 | > 100 | –
8 | C(=NCc1ccccc1)c1ccccc1-c1ccccc1C=NCc1ccccc1 | > 10 | > 10 | > 10 | > 10 | > 10 | > 10 | > 10 | > 10 | > 10 | > 10 | > 10 | > 10 | > 10 | > 10 | > 10 | 9.76 | –
9 | CN(C)C(=O)Nc1cc2c3c(c1)CCCN3CCC2 | > 10 | > 10 | > 10 | > 10 | > 10 | > 10 | > 10 | > 10 | > 10 | > 10 | > 10 | > 10 | > 10 | > 10 | > 10 | > 10 | –
10 | O=c1oc2ccccc2c(O)c1C(c1ccc(/C=C/c2ccccc2)cc1)c1c(O)c2ccccc2oc1=O | – | 74.4 | 64.9 | > 100 | 35.6 | > 100 | > 100 | > 100 | – | 43.9 | 37.2 | > 100 | 61.3 | – | > 100 | > 100 | 56.2
11 | C[C@H]1C[C@H](C)c2ccccc2N(C)C1=Nc1ccccc1 | > 100 | 83.6 | > 100 | > 100 | > 100 | > 100 | > 100 | 44.2 | > 100 | 68.7 | 23.3 | > 100 | > 100 | – | 46.3 | > 100 | –
12 | O=C1c2ccccc2-c2ccc(N=Nc3c(O)ccc4ccccc34)cc21 | – | > 100 | > 100 | > 100 | – | > 100 | > 100 | > 100 | – | > 100 | > 100 | > 100 | > 100 | > 100 | > 100 | > 100 | > 100
13 | COc1cc(NCc2ccc3nc(OC)c(OC)nc3c2)cc(OC)c1OC | > 100 | > 100 | > 100 | > 100 | > 100 | > 100 | > 100 | > 100 | > 100 | > 100 | > 100 | > 100 | > 100 | > 100 | > 100 | > 100 | –
14 | O=C(C1C(c2ccccc2)N1C(c1ccccc1)c1ccccc1)C1C(c2ccccc2)N1C(c1ccccc1)c1ccccc1 (stereo not drawn) | 22.4 | – | 67.5 | – | – | 37.2 | > 100 | – | 43.4 | > 100 | 30.2 | – | – | > 100 | 15.8 | 20.3 | –
15 | COC(=O)c1ccccc1/C=C1\Cc2cc(C)cc(C)c2C1=O | > 100 | > 100 | > 100 | > 100 | > 100 | > 100 | > 100 | > 100 | > 100 | > 100 | > 100 | > 100 | – | – | > 100 | > 100 | –
16 | COC(=O)C1[C@@H](C(=O)OC)C12C=Cc1ccccc1C=C2 (stereo partly drawn) | – | – | > 100 | – | > 100 | > 100 | > 100 | > 100 | > 100 | – | – | > 100 | – | > 100 | > 100 | > 100 | –
